In article PMC3217308 (Journal of Agricultural and Food Chemistry, 2011) one finds nonspecific signals data, which are given here for one substance.

This assay concerns the target T1, human sweet taste receptor, hT1R2/hT1R3 (Homo sapiens, UniProt Q7RTX0+Q8TE23).
T1 sequence (Q8TE23 20-839): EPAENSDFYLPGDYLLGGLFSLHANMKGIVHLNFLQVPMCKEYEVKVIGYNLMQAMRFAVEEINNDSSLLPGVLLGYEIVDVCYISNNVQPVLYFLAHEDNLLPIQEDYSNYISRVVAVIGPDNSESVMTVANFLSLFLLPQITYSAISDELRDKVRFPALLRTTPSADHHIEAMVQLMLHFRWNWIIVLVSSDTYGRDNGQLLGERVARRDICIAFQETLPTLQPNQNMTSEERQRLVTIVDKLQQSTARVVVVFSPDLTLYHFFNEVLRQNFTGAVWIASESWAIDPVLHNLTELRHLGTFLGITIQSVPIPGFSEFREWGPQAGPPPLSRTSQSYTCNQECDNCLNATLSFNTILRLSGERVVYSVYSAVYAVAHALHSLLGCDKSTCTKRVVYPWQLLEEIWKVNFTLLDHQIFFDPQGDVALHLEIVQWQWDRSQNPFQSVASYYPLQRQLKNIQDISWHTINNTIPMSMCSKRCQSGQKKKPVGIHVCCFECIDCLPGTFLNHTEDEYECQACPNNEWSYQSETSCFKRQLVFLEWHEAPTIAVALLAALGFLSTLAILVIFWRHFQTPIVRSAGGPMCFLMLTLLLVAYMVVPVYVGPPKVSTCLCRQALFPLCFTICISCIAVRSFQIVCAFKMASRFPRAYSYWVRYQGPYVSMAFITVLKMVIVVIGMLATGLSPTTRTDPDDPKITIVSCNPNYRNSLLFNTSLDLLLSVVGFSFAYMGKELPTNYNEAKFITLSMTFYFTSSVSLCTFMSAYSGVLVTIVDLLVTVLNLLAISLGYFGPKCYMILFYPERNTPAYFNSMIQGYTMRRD
T1 sequence (Q7RTX0 21-852): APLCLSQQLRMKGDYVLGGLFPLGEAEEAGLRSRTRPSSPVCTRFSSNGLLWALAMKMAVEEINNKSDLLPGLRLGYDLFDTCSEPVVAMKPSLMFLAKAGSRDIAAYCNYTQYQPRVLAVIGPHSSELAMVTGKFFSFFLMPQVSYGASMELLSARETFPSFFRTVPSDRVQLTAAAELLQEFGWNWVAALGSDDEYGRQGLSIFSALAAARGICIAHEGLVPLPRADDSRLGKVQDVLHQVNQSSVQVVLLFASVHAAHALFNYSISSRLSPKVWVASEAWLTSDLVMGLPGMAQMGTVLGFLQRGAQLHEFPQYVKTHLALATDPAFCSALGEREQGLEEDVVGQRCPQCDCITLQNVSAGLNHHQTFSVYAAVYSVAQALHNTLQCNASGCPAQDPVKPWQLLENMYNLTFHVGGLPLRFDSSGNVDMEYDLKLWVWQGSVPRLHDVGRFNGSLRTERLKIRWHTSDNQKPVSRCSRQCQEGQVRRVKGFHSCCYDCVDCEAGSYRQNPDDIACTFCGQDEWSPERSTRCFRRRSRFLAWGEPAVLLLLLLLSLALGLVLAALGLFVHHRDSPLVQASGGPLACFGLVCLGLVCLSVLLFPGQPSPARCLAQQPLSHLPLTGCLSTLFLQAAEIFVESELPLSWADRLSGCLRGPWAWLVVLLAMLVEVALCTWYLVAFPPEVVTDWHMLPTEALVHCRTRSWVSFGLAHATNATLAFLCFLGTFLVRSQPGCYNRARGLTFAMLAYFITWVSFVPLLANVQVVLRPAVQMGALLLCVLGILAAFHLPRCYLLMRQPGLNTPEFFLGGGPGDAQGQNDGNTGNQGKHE
The assay is described as follows: Luminescence assay. The settings on record: aequorin assay, 10–40 nM BCECF. The assay is classed as cell-based.

Take “2′,7′-bis-(2-carboxyethyl)-5-(and-6)-carboxyfluorescein [BCECF]”: the nonspecific signals result is given as “did not produce nonspecific signals”.
